# Experimental data reported in ChEMBL document CHEMBL4177586, “Small molecule adjuvants that suppress both chromosomal and mcr-1 encoded colistin-resistance and amplify colistin efficacy in polymyxin-susceptible bacteria” (Bioorg Med Chem, 2017).
# Tests used:
# Acinetobacter baumannii [1] = assay: Potentiation of colistin-induced antimicrobial activity against Acinetobacter baumannii ATCC 17978 expressing mcr1 gene assessed as colistin MIC at 30 uM incubated for overnight duration by CLSI based method (reference value: 16 ug/ml); assay type: functional
# Acinetobacter baumannii [2] = assay: Potentiation of colistin-induced antimicrobial activity against Acinetobacter baumannii SM1536 expressing mcr1 gene assessed as colistin MIC at 30 uM incubated for overnight duration by CLSI based method (reference value: 64 ug/ml); assay type: functional
# Escherichia coli [3] = assay: Potentiation of colistin-induced antimicrobial activity against Escherichia coli ATCC 25922 expressing mcr1 gene assessed as colistin MIC at 30 uM incubated for overnight duration by CLSI based method (reference value: 8 ug/ml); assay type: functional
# Escherichia coli [4] = assay: Potentiation of colistin-induced antimicrobial activity against Escherichia coli YD626 expressing mcr1 gene assessed as colistin MIC at 30 uM incubated for overnight duration by CLSI based method (reference value: 4 ug/ml); assay type: functional
# Klebsiella pneumoniae [5] = assay: Potentiation of colistin-induced antimicrobial activity against Klebsiella pneumoniae 2210291 expressing mcr1 gene assessed as colistin MIC at 30 uM incubated for overnight duration by CLSI based method (reference value: 16 ug/ml); assay type: functional
# Acinetobacter baumannii [6] = assay: Potentiation of colistin-induced antimicrobial activity against Acinetobacter baumannii SM1536 expressing mcr1 gene assessed as colistin MIC at 15 uM incubated for overnight duration by CLSI based method (reference value: 64 ug/ml); assay type: functional
# Escherichia coli [7] = assay: Potentiation of colistin-induced antimicrobial activity against Escherichia coli YD626 expressing mcr1 gene assessed as colistin MIC at 15 uM incubated for overnight duration by CLSI based method (reference value: 4 ug/ml); assay type: functional
# Klebsiella pneumoniae [8] = assay: Potentiation of colistin-induced antimicrobial activity against Klebsiella pneumoniae 2210291 expressing mcr1 gene assessed as colistin MIC at 15 uM incubated for overnight duration by CLSI based method (reference value: 16 ug/ml); assay type: functional
# Acinetobacter baumannii [9] = assay: Potentiation of colistin-induced antimicrobial activity against Acinetobacter baumannii ATCC 17978 expressing mcr1 gene assessed as reduction in colistin MIC at 30 uM incubated for overnight duration by CLSI based method relative to colistin alone control; assay type: functional
# Acinetobacter baumannii [10] = assay: Potentiation of colistin-induced antimicrobial activity against Acinetobacter baumannii SM1536 expressing mcr1 gene assessed as reduction in colistin MIC at 30 uM incubated for overnight duration by CLSI based method relative to colistin alone control; assay type: functional
# Escherichia coli [11] = assay: Potentiation of colistin-induced antimicrobial activity against Escherichia coli ATCC 25922 expressing mcr1 gene assessed as reduction in colistin MIC at 30 uM incubated for overnight duration by CLSI based method relative to colistin alone control; assay type: functional
# Escherichia coli [12] = assay: Potentiation of colistin-induced antimicrobial activity against Escherichia coli YD626 expressing mcr1 gene assessed as reduction in colistin MIC at 30 uM incubated for overnight duration by CLSI based method relative to colistin alone control; assay type: functional
# Klebsiella pneumoniae [13] = assay: Potentiation of colistin-induced antimicrobial activity against Klebsiella pneumoniae 2210291 expressing mcr1 gene assessed as reduction in colistin MIC at 30 uM incubated for overnight duration by CLSI based method relative to colistin alone control; assay type: functional
# Acinetobacter baumannii [14] = assay: Potentiation of colistin-induced antimicrobial activity against Acinetobacter baumannii ATCC 17978 expressing mcr1 gene assessed as reduction in colistin MIC at 15 uM incubated for overnight duration by CLSI based method relative to colistin alone control; assay type: functional
# Acinetobacter baumannii [15] = assay: Potentiation of colistin-induced antimicrobial activity against Acinetobacter baumannii SM1536 expressing mcr1 gene assessed as reduction in colistin MIC at 15 uM incubated for overnight duration by CLSI based method relative to colistin alone control; assay type: functional
# Escherichia coli [16] = assay: Potentiation of colistin-induced antimicrobial activity against Escherichia coli ATCC 25922 expressing mcr1 gene assessed as reduction in colistin MIC at 15 uM incubated for overnight duration by CLSI based method relative to colistin alone control; assay type: functional
# Escherichia coli [17] = assay: Potentiation of colistin-induced antimicrobial activity against Escherichia coli YD626 expressing mcr1 gene assessed as reduction in colistin MIC at 15 uM incubated for overnight duration by CLSI based method relative to colistin alone control; assay type: functional
# Klebsiella pneumoniae [18] = assay: Potentiation of colistin-induced antimicrobial activity against Klebsiella pneumoniae 2210291 expressing mcr1 gene assessed as reduction in colistin MIC at 15 uM incubated for overnight duration by CLSI based method relative to colistin alone control; assay type: functional
# Acinetobacter baumannii [19] = assay: Toxicity against Acinetobacter baumannii ATCC 17978 incubated for overnight duration by CLSI based method; assay type: organism-based; details: in vivo
# Acinetobacter baumannii [20] = assay: Toxicity against Acinetobacter baumannii SM1536 incubated for overnight duration by CLSI based method; assay type: organism-based; details: in vivo
# Escherichia coli [21] = assay: Toxicity against Escherichia coli YD626 incubated for overnight duration by CLSI based method; assay type: organism-based; details: in vivo
# Klebsiella pneumoniae [22] = assay: Toxicity against Klebsiella pneumoniae 2210291 incubated for overnight duration by CLSI based method; assay type: organism-based; details: in vivo
# Acinetobacter baumannii [23] = assay: Potentiation of colistin-induced antimicrobial activity against Acinetobacter baumannii ATCC 17978 assessed as colistin MIC at 30 uM incubated for overnight duration by CLSI based method (reference value: 2 ug/ml); assay type: functional
# Acinetobacter baumannii [24] = assay: Potentiation of colistin-induced antimicrobial activity against Acinetobacter baumannii SM1536 assessed as colistin MIC at 30 uM incubated for overnight duration by CLSI based method (reference value: 2 ug/ml); assay type: functional
# Escherichia coli [25] = assay: Potentiation of colistin-induced antimicrobial activity against Escherichia coli ATCC 25922 assessed as colistin MIC at 30 uM incubated for overnight duration by CLSI based method (reference value: […]); assay type: functional
# Escherichia coli [26] = assay: Potentiation of colistin-induced antimicrobial activity against Escherichia coli YD626 assessed as colistin MIC at 30 uM incubated for overnight duration by CLSI based method (reference value: 1 ug/ml); assay type: functional
# Klebsiella pneumoniae [27] = assay: Potentiation of colistin-induced antimicrobial activity against Klebsiella pneumoniae 2210291 assessed as colistin MIC at 30 uM incubated for overnight duration by CLSI based method (reference value: 1 ug/ml); assay type: functional
# Acinetobacter baumannii [28] = assay: Potentiation of colistin-induced antimicrobial activity against Acinetobacter baumannii ATCC 17978 assessed as reduction in colistin MIC at 30 uM incubated for overnight duration by CLSI based method relative to colistin alone control; assay type: functional
# Escherichia coli [29] = assay: Potentiation of colistin-induced antimicrobial activity against Escherichia coli ATCC 25922 assessed as reduction in colistin MIC at 30 uM incubated for overnight duration by CLSI based method relative to colistin alone control; assay type: functional
# Escherichia coli [30] = assay: Potentiation of colistin-induced antimicrobial activity against Escherichia coli YD626 assessed as reduction in colistin MIC at 30 uM incubated for overnight duration by CLSI based method relative to colistin alone control; assay type: functional
# Klebsiella pneumoniae [31] = assay: Potentiation of colistin-induced antimicrobial activity against Klebsiella pneumoniae 2210291 assessed as reduction in colistin MIC at 30 uM incubated for overnight duration by CLSI based method relative to colistin alone control; assay type: functional
# Klebsiella pneumoniae [32] = assay: Potentiation of colistin-induced antimicrobial activity against multidrug resistant Klebsiella pneumoniae BAA2146 assessed as minimum drug concentration needed to cause colsitin MIC of 0.125 ug/ml incubated for overnight duration by CLSI based method; assay type: functional
Compound,MIC (Acinetobacter baumannii [1]),MIC (Acinetobacter baumannii [2]),MIC (Escherichia coli [3]),MIC (Escherichia coli [4]),MIC (Klebsiella pneumoniae [5]),MIC (Acinetobacter baumannii [6]),MIC (Escherichia coli [7]),MIC (Klebsiella pneumoniae [8]),fold change (FC) (Acinetobacter baumannii [9]),fold change (FC) (Acinetobacter baumannii [10]),fold change (FC) (Escherichia coli [11]),fold change (FC) (Escherichia coli [12]),fold change (FC) (Klebsiella pneumoniae [13]),fold change (FC) (Acinetobacter baumannii [14]),fold change (FC) (Acinetobacter baumannii [15]),fold change (FC) (Escherichia coli [16]),fold change (FC) (Escherichia coli [17]),fold change (FC) (Klebsiella pneumoniae [18]),MIC (Acinetobacter baumannii [19]),MIC (Acinetobacter baumannii [20]),other results
CCCCCCc1ccc(-c2cn(C(C)C)c(N)n2)cc1,0.5 µg/mL,1 µg/mL,0.016 µg/mL,0.016 µg/mL,0.5 µg/mL,8 µg/mL,2 µg/mL,8 µg/mL,32,64,512,256,32,4,4,0,2,2,200 µM,200 µM,MIC (Escherichia coli [21]): 200 µM; MIC (Klebsiella pneumoniae [22]): 200 µM; MIC (Acinetobacter baumannii [23]): 0.016 µg/mL; MIC (Acinetobacter baumannii [24]): 0.016 µg/mL; MIC (Escherichia coli [25]): 0.0039 µg/mL; MIC (Escherichia coli [26]): 0.00049 µg/mL; MIC (Klebsiella pneumoniae [27]): 0.031 µg/mL; fold change (FC) (Acinetobacter baumannii [28]): 128; fold change (FC) (Escherichia coli [29]): 256; fold change (FC) (Escherichia coli [30]): 2048; fold change (FC) (Klebsiella pneumoniae [31]): 64; MIC (Klebsiella pneumoniae [32]): 20 µM
CCCCCCc1ccc(-c2cn(CC)c(N)n2)cc1,0.5 µg/mL,0.25 µg/mL,< 0.0039 µg/mL,< 0.0019 µg/mL,0.125 µg/mL,8 µg/mL,0.5 µg/mL,4 µg/mL,32,256,>2048,>2048,128,4,8,2,8,4,100 µM,100 µM,MIC (Escherichia coli [21]): 200 µM; MIC (Klebsiella pneumoniae [22]): > 200 µM; MIC (Acinetobacter baumannii [23]): 0.0039 µg/mL; MIC (Acinetobacter baumannii [24]): 0.0078 µg/mL; MIC (Escherichia coli [25]): 0.00098 µg/mL; MIC (Escherichia coli [26]): 0.00049 µg/mL; MIC (Klebsiella pneumoniae [27]): 0.031 µg/mL; fold change (FC) (Acinetobacter baumannii [28]): 512; fold change (FC) (Escherichia coli [29]): 2048; fold change (FC) (Escherichia coli [30]): 2048; fold change (FC) (Klebsiella pneumoniae [31]): 32; MIC (Klebsiella pneumoniae [32]): 15 µM
CCCCCc1ccc(C(=O)NCCn2cc(CCCCCc3cnc(N)n3Cc3ccc(CCCC)cc3)nn2)cc1,0.5 µg/mL,2 µg/mL,0.25 µg/mL,< 0.002 µg/mL,0.25 µg/mL,8 µg/mL,0.063 µg/mL,1 µg/mL,32,32,32,>2048,64,8,8,16,64,16,> 200 µM,> 200 µM,MIC (Escherichia coli [21]): > 200 µM; MIC (Klebsiella pneumoniae [22]): > 200 µM; MIC (Acinetobacter baumannii [23]): < 0.00098 µg/mL; MIC (Acinetobacter baumannii [24]): < 0.00098 µg/mL; MIC (Escherichia coli [25]): < 0.00049 µg/mL; MIC (Escherichia coli [26]): < 0.00049 µg/mL; MIC (Klebsiella pneumoniae [27]): 0.016 µg/mL; fold change (FC) (Acinetobacter baumannii [28]): >2048; fold change (FC) (Escherichia coli [29]): >2048; fold change (FC) (Escherichia coli [30]): >2048; fold change (FC) (Klebsiella pneumoniae [31]): 64; MIC (Klebsiella pneumoniae [32]): 10 µM
